test system: A2780 human ovarian cancer cell line; experiment: Cytotoxicity bioassay against the A2780 ovarian cancer cell line; assay type: cell-based; settings: A2780 human ovarian cancer cell line; read-out: IC50 against A2780
Description: Cytotoxicity Bioassays. Cytotoxicity measurements were performed against the A2780 ovarian cancer cell line as previously described. The A2780 cell line is a drug-sensitive ovarian cancer cell line.

Compound	IC50
C/C=C(\C)C(=O)OC1C(O)C2OC(COC(=O)CCC(=O)[C@@H](OC(C)=O)CCCCC[C@H](CCC)OC3OC(C)C(OC(C)=O)C(O)C3O2)C1OC(=O)/C=C/c1ccccc1 (stereo partly drawn) [Compound 4, Tetradecanoic acid, 11-[[4-O-acetyl-6-deoxy-2-O-[3-O-[(2E)-2-methyl-1-oxo-2-butenyl]-4-O-[(2E)-1-oxo-3-phenyl-2-propenyl]-β-D-glucopyranosyl]-β-D-galactopyranosyl]oxy]-5-(acetyloxy)-4-oxo-, intramol. 1,6″-ester, (5S,11S)-]	35 nM

same assay, conditions: Homo sapiens, A2780; read-out: IC50 (concentration that inhibited 50% of the growth of the A2780 human ovarian cell line)

Compound	IC50
C/C=C(\C)C(=O)OC1C(O)C2OC(COC(=O)CCC(=O)[C@@H](OC(C)=O)CCCCC[C@H](CCC)OC3OC(C)C(OC(C)=O)C(O)C3O2)C1OC(=O)/C=C/c1ccccc1 (stereo partly drawn) [Compound 4, Tetradecanoic acid, 11-[[4-O-acetyl-6-deoxy-2-O-[3-O-[(2E)-2-methyl-1-oxo-2-butenyl]-4-O-[(2E)-1-oxo-3-phenyl-2-propenyl]-β-D-glucopyranosyl]-β-D-galactopyranosyl]oxy]-5-(acetyloxy)-4-oxo-, intramol. 1,6″-ester, (5S,11S)-]	35 nM
C/C=C(\C)C(=O)OC1C(O)C2OC(COC(=O)CCC(=O)CCCCCC[C@H](CCC)OC3OC(C)C(O)C(O)C3O2)C1OC(=O)/C=C/c1ccccc1 (stereo partly drawn) [Compound 2, Tetradecanoic acid, 11-[[6-deoxy-2-O-[3-O-[(2E)-2-methyl-1-oxo-2-butenyl]-4-O-[(2E)-1-oxo-3-phenyl-2-propenyl]-β-D-glucopyranosyl]-β-D-galactopyranosyl]oxy]-4-oxo-, intramol. 1,6″-ester, (11S)-]	400 nM
C/C=C(\C)C(=O)OC1C(O)C2OC(COC(=O)CCC(=O)[C@@H](OC(C)=O)CCCCC[C@H](CCC)OC3OC(C)C(O)C(O)C3O2)C1OC(=O)/C=C/c1ccccc1 (stereo partly drawn) [Compound 5, Tetradecanoic acid, 5-(acetyloxy)-11-[[6-deoxy-2-O-[3-O-[(2E)-2-methyl-1-oxo-2-butenyl]-4-O-[(2E)-1-oxo-3-phenyl-2-propenyl]-β-D-glucopyranosyl]-β-D-galactopyranosyl]oxy]-4-oxo-, intramol. 1,6″-ester, (5S,11S)-]	3300 nM
C/C=C(\C)C(=O)OC1C(OC(=O)/C=C/c2ccccc2)C2COC(=O)CCC(=O)CCCCCC[C@H](CCC)OC3OC(C)C(OC(C)=O)C(OC(C)=O)C3OC(O2)C1OC(C)=O (stereo partly drawn) [Compound 6, 3′,2″-O-Diacetyl ipomoeassin A]	15800 nM
C/C=C(\C)C(=O)OC1C(OC(=O)/C=C/c2ccccc2)C2COC(=O)CCC(=O)[C@@H](OC(C)=O)CCCCC[C@H](CCC)OC3OC(C)C(OC(C)=O)C(OC(C)=O)C3OC(O2)C1OC(C)=O (stereo partly drawn) [Compound 7, 5,3′,2″-O-Triacetyl ipomoeassin C]	19100 nM
C/C=C(\C)C(=O)OC1C(O)C2OC(COC(=O)CCC(=O)[C@@H](O)CCCCC[C@H](CCC)OC3OC(C)C(OC(C)=O)C(O)C3O2)C1OC(=O)/C=C/c1ccccc1 (stereo partly drawn) [Compound 3, Tetradecanoic acid, 11-[[4-O-acetyl-6-deoxy-2-O-[3-O-[(2E)-2-methyl-1-oxo-2-butenyl]-4-O-[(2E)-1-oxo-3-phenyl-2-propenyl]-β-D-glucopyranosyl]-β-D-galactopyranosyl]oxy]-5-hydroxy-4-oxo-, intramol. 1,6″-ester, (5S,11S)-]	2900 nM
C/C=C(\C)C(=O)OC1C(O)C2OC(COC(=O)CCC(=O)CCCCCC[C@H](CCC)OC3OC(C)C(OC(C)=O)C(O)C3O2)C1OC(=O)/C=C/c1ccccc1 (stereo partly drawn) [Compound 1, Tetradecanoic acid, 11-[[4-O-acetyl-6-deoxy-2-O-[3-O-[(2E)-2-methyl-1-oxo-2-butenyl]-4-O-[(2E)-1-oxo-3-phenyl-2-propenyl]-β-D-glucopyranosyl]-β-D-galactopyranosyl]oxy]-4-oxo-, intramol. 1,6″-ester, (11S)-]	500 nM
C/C=C(\C)C(=O)OC1C(O)C2OC(COC(=O)CCC(=O)CCCCCCC(CCCCC)OC3OC(C)C(OC(C)=O)C(O)C3O2)C1OC(=O)/C=C/c1ccccc1 [Compound 14, Hexadecanoic acid, 11-[[4-O-acetyl-6-deoxy-2-O-[3-O-[(2E)-2-methyl-1-oxo-2-butenyl]-4-O-[(2E)-1-oxo-3-phenyl-2-propenyl]-β-D-glucopyranosyl]-β-D-galactopyranosyl]oxy]-4-oxo-, intramol. 1,6″-ester, (11S)-]	36 nM
